The results in this text go back to paper PMC10987501, “The antihyperglycemic potential of pyrazolobenzothiazine 1, 1-dioxide novel derivative in mice using integrated molecular pharmacological approach” (Scientific Reports, 2024).

“Also recorded” adds a separate entry of the source.

Data set [1] concerns α-glucosidase. Briefly: Kinetics study (α-glucosidase), Lineweaver–Burk plot. Type of data set: biochemical. On the procedure: (p-nitrophenyl-α-D-glucoside) was used for reaction. In addition, varying concentrations (0.1 mM, 0.25 mM, 0.5 mM, 0.75 mM, 1 mM) sample/inhibitor [V] was used. The type of inhibition was determined by the Lineweaver–Burk plot, while the Michaelis Menten equation was used to find the value of the inhibition constant. Vo=VmaxS/Km+S 1/Vo=Km+S/VmaxS=km/Vmax1/S+1/Vmax
The initial rate of reaction is indicated by V0, Michaelis Menten's constant signifies km, Km/Vmax represents to slope, and 1/Vmax denotes the y-intercept. The value of the inhibitory constant was calculated by plotting the secondary graph. Straight-line produced by slope versus [V] intersecting x-axis indicates ki value while ki′ was produced by intersecting line plotted between y-intercept and [V].

Data set [2] has as its system α-amylase. The experiment in a line: α-amylase inhibition assay (starch substrate, DNSA). The data set is classed as biochemical. On the procedure:
ELISA plate was used for inhibition assay and it was loaded with 40 µL of the sample. Enzyme prepared in 0.02 M sodium phosphate buffer with pH 6.9 (40 µL) was further added to wells. The solution in wells was kept on incubation at 37 °C for 10 min. Moreover, 40 µL starch solution prepared in 1% DMSO was added to the solution and put on incubation for 10 min at 25 °C. At last, to stop the reaction, 100 µL of DNSA reagent was added to the solution. The mixture was put in a boiling water bath for 5 min and cooled down at room temperature after incubation. For dilution of the reaction mixture, 400 µL of distilled water was added to the solution, and the absorbance of the reaction mixture was measured at 540 nm wavelength. To calculate the percentage inhibition the following formula was used. Inhibition%=B-S/B∗100
(§1) At this point, the B and S denote absorbance for the blank and samples. Blank contains only DMSO instead of sample.

In data set [3] the test system is BALB/c mice. The experiment in a line: Biochemical investigation of blood in alloxan-induced diabetic mice. The data set is classed as in vivo. Further details: Serum insulin level: unit not given here. The settings on record: for Serum creatinine / Cholesterol in blood / HbA1c, % of glycated haemoglobin: treated group; for Serum creatinine: diabetic control 1.9 mg/dL; for Cholesterol in blood: diabetic control 120 mg/dL; for HbA1c, % of glycated haemoglobin: diabetic control 9%; for Serum insulin level: normal mice about 15 µM/L. On the procedure:
(§2) All experimental protocols adhered to the guidelines outlined in the NIH Guide for Care and Use of Laboratory Animals and the ARRIVE guidelines for animal experimentation. The Animal Care and Use Committee (ACUC) of Government College University Faisalabad (GCUF-2021-09) provided approval for the study. For in vivo study, BALB/c mice (weight 26–33 g) were acquired from the Department of Pharmacy and kept in the optimized environment (12 h dark, 12 h light) with a regular pellet diet and normal tab water. Diabetes induction in mice was done through a standard protocol reported by[21] with slight amendments. Alloxan monohydrate 150 mg/kg (following the body weight of mice) was liquified in normal saline and injected intraperitoneally in mice fasted for 16 h[22],[23]. Furthermore, screening of mice was done based on their blood glucose levels and mice with blood glucose levels more than 1.26 g/L were considered diabetic, and therefore taken for further experiment/examination. The mice diagnosed with diabetes were classified into five groups and five mice in each group. […] Two doses were selected because they indicate how the organism's response changes at different levels of exposure. This information is crucial for determining safe dosage levels for humans or animals.
For biochemical testing and histological examination, mice from each group were collected, and data were produced for different testing parameters, including fasting blood glucose, serum creatinine, serum insulin, HbA1c, triglyceride and cholesterol. A Countour TS glucometer was used to measure mice's fasting blood glucose levels. While Clinical Chemistry Reagents SRL (CCR) kit was used to measure serum creatinine and triglyceride levels. Moreover, the VITRO SCIENT kit was utilized to measure the serum insulin, cholesterol and HbA1c levels. For histological analysis, mice were sacrificed and their organs (liver, kidney and pancreas) were washed with cold saline and preserved in a 10% formalin solution. A compound microscope from the Department of Physiology, Government College University Faisalabad, was used for tissue investigation under a controlled and organized environment. Pictures of tissue samples were taken through OPTIKA software.

The subject of data set [4] is α-glucosidase. Briefly: α-glucosidase inhibition assay (PNPG substrate). The note with it: for α-glucosidase % inhibition: 10 μL (500 µM) sample. The data set is classed as biochemical. The method, then:
To carry out this reaction, 10 μL (500 µM) of 10 mM sample solution (prepared in DMSO) was added to ELISA 96 microwell plate. Then, 40 μL of 0.5U/ml α glucosidase was mixed by adding 120 μL of 0.1M phosphate buffer with a pH value of 7.4. The solution was incubated at 37 °C for 5 min. The reaction proceeded further by adding 40 μL of 5 mM substrate solution (PNPG) and incubation was done for half an hour at 37 °C. After performing the incubation microplate reader was used to read the absorbance of the reaction mixture at 405 nm wavelength. […] The inhibition percentage of the sample and positive control were calculated using the following formula. Inhibition%=B-S/B∗100
as §1

For data set [5], the system named is α-amylase. The experiment in a line: Kinetics study (α-amylase), Lineweaver–Burk plot. Type of data set: biochemical. On the procedure: Varying concentrations (0.25%, 0.5%, 1%, 1.5%, 2%) of substrate [S] (starch) were used with constant enzyme concentration. Same as substrate, varying concentration (1 mM, 3 mM, 5 mM, 7 mM, 9 mM) of the inhibitor [V] was used. Lineweaver–Burk plots were used to determine the type of enzyme inhibition and the Michaelis Menten equation was used to find the value of inhibition constant. Vo=VmaxS/Km+S 1/Vo=Km+S/VmaxS=km/Vmax1/S+1/Vmax
The initial reaction rate is indicated by V0, Michaelis Menten's constant signifies km, Km/Vmax represents slope, and 1/Vmax denotes the y-intercept. The value of the inhibitory constant was calculated by plotting the secondary graph. Straight-line produced by slope versus [V] intersecting x-axis indicates ki value while ki′ was produced by intersecting line plotted between y-intercept and [V].

The subject of data set [6] is BALB/c mice. The experiment in a line: Histology of liver, kidney and pancreas and side effects in alloxan-induced diabetic mice. Type of data set: in vivo. The method, then: as §2, with “animals. […]” for “animals.”

`C[C@H]1O[C@H](O[C@H]2[C@H](O)[C@@H](O)[C@@H](O[C@H]3[C@H](O)[C@@H](O)C(O)O[C@@H]3CO)O[C@@H]2CO)[C@H](O)[C@@H](O)[C@@H]1N[C@H]1C=C(CO)[C@@H](O)[C@H](O)[C@H]1O` (some centres unmarked) [Acarbose, reference compound]: the “Type of inhibition, α-glucosidase” value in the data set on α-glucosidase [1] was “competitive inhibition”. This compound registered a α-amylase % inhibition in the data set on α-amylase [2] of 33 ± 0.042%. For the same compound, in the data set on BALB/c mice [3], the Serum creatinine was 0.8 mg/dL; the Cholesterol in blood amounted to 100 mg/dL; the “HbA1c, % of glycated haemoglobin” value was 5%. For the same compound, the α-glucosidase % inhibition with α-glucosidase [4] is recorded as 37 ± 0.026%.

Consider `C/C(=N\NC(=O)C1=C(O)c2ccccc2S(=O)(=O)N1)c1ccccc1` [Compound S1, (E)-4-Hydroxy-N′-(1-phenylethylamine)-2H-benzo[e][1,2]thiazine-3-carbohydrazide1,1-dioxide], for which the “Type of inhibition, α-amylase” value in the data set on α-amylase [5] is “competitive type of inhibition; also recorded: competitively”. The “Type of inhibition, α-glucosidase” value in the data set with α-glucosidase [1] was “competitive type of inhibition; also recorded: competitively”. At α-amylase [2], the half-inhibitory concentration (IC50) (commonly the concentration that inhibits the measured activity by half) amounted to 8.89 µM and the α-amylase % inhibition is 46 ± 0.091%. The Serum insulin level in the data set with BALB/c mice [3] (double dose (7.8 mg/kg)) is 30. Also, the “Fasting blood sugar level” value in the data set on BALB/c mice [3] (single and double doses (3.9 and 7.8 mg/kg), diabetic control > 300 mg/dL) came to 110 mg/dL. Also, the Serum insulin level in the data set with BALB/c mice [3] (single dose (3.9 mg/kg)) amounted to 25. Besides, in the data set on BALB/c mice [3], the Serum creatinine is 0.6 mg/dL; the Cholesterol in blood is given as 85 mg/dL; the “HbA1c, % of glycated haemoglobin” value is 3%. This compound displayed a half-maximal inhibitory concentration (IC50) at α-glucosidase [4] of 3.91 µM. Moreover, the α-glucosidase % inhibition in the data set with α-glucosidase [4] (500 µM) stood at 55 ± 0.047%. Besides, the “Side effects in the mice model” value with BALB/c mice [6] (after administration to mice) is recorded as “no significant side effect”. The “Histology: necrosis / toxicity in liver, kidney and pancreas” value in the data set with BALB/c mice [6] (diabetic mice dissected after 21 days of treatment) is “low necrosis rate; also recorded: less toxic in the kidney, liver, and pancreas; also recorded: no toxicity within the liver and pancreatic tissues; also recorded: minimum rate of necrosis and toxicity”.
